# Data from US20220340983A1, “SYSTEMS AND ASSAYS FOR IDENTIFYING PU.1 INHIBITORS” (Massachustts Institute of Technology, priority 2019, published 2022).
# Assays:
# PU.1 = target: T1, PU.1 (Mus musculus, UniProt P17433); experiment: Luciferase assay (luminescence) in BV2 PU.1-Luciferase reporter cells; format: cell-based; settings: luminescence reduction in BV2 PU.1-Luciferase cells, concentration-response, Hill's equation
# T1 construct: endogenous in cells; host or cells: BV2 PU.1-Luciferase (mouse microglial BV2 with a 5xLBB-luciferase reporter integrated at ROSA26)
# Description: PU.1 belongs to a group of transcription factors that all bind to the middle 5′-GGAA-3′ sequence. The flanking A/T rich sequence is crucial for conferring PU.1 selective binding. The flanking sequence requires unique structural properties of PU.1 and can therefore be targeted by drugs acting as allosteric inhibitors that prevent PU.1 from binding to the LBB. In order to achieve robust PU.1 binding, five tandem copies of the LBBs (5×LBB) were inserted into the luciferase promoter of the pGL4.23 plasmid. The region containing the five LBBs (5×LBB) was then subcloned into the pROSA26-1 plasmid (together with a PGKneo bpA plasmid for Neomycin/G418 resistance) that allows stable integration in chromosome 6 of the immortalized mouse microglial BV2 cell line (FIG. 2B). The stable cell line was created by selection with G418.
# The BV2 PU.1-Luciferase cells (referred to as “cells” from here onward) were plated into a 384-well plate, using an automatic dispenser, 2000 cells per well in 30 μL of media composed of RPMI (Sigma-Aldrich), 10% FBS, 1% PenStrep (50 mg/mL) and 1% G418 (50 mg/mL) was plated. A robotic arm was used to transfer compounds in a 384-well format using a pin array into the plate containing the cells (here, 33 nL was transferred from a drug library containing 10 mM concentration of drugs for a final concentration of 10 μM per well). For reproducibility, each pin array with 384 compounds was added to 4 plates of cells. […] Subsequently, automatic of 30 μL of BrightGlo (Promega) was dispensed into 2 of the 4 plates, in order to lyse the cells and drive the luminescence reaction whereafter the luminescence intensity was measured by a plate reader (Perkin Elmer EnVision). The two other plates were fixed by automatically dispensing 30 μL of 10% formaldehyde with 2μL Hoechst per 1 mL formaldehyde which were left at room temperature for one hour, followed by plate reading (Acumen (TTPLabTech)). A compound transfer and treatment would be repeated if reproducibility between the luminescence plates and/or the fixed Hoechst plates was lacking. The drugs were selected and ranked according to the criteria described in FIG. 13. Luminescence values used were corrected for crosstalk. Hoechst values were total fluorescence area per well. Determination of a positive hit considered both the reduction of luminescence as well as a possible confounding reduction in cell viability. The formula used was y=(value−meanvalue)/stddev. […] Compounds were excluded if cell viability was reduced >2 standard deviations from the mean, using the same formula. The positive hits were then validated in multiple steps in order to identify true PU.1 inhibitors.
# The degree of luminescence reduction of the hits was plotted with significant effective area under the curve in order to obtain an IC50.
# [1] = test system: PU.1 dependent gene expression; experiment: RT-qPCR of mRNA levels in BV2 PU.1-Luciferase cells (validation round 3); format: cell-based, mouse; settings: 2-day treatment
# Experimental: The Asinex1 and ChemDiv6 libraries contain molecules with unknown biological properties, but with low toxicity, high stability, and a broad structural diversity used to generate structure-activity-relationships (SAR) of the PU.1 inhibitors. […] In order to obtain the SAR, three rounds of validation were performed. In round 1, false-positive, non-specific luciferase quencher molecules were excluded using the commercially available HEK293 CMV-Luciferase line that constitutively expresses luciferase under the CMV promoter. In round 2, weak (non-significant) hits were eliminated according to degree of PU.1 inhibition in the absence of cell death. In round 3, drugs were selected that reduce PU.1-dependent gene expression with RT-qPCR.
Structure (SMILES),IC50 (PU.1) [nM],mRNA levels Apoe [1],mRNA levels IL1β [1],mRNA levels Lucif. [1],mRNA levels Spi1 [1],mRNA levels Trem2 [1],mRNA levels Tyrobp [1]
Cc1c(Cl)cccc1-n1ncc(C(=O)Nc2ccc3c(c2)OCCO3)c1C1CCN(C(=O)OC(C)(C)C)CC1 [Compound 2D3],2650,0.980 multiples of 1×,0.960 multiples of 1×,0.480 multiples of 1×,0.922 multiples of 1×,0.987 multiples of 1×,0.950 multiples of 1×
CCOc1ccc(S(=O)(=O)Nc2ccc3c(c2)c(C(C)=O)c(C)n3S(=O)(=O)c2ccc(OCC)cc2)cc1 [Compound 1A5],2930,1.200 multiples of 1×,0.707 multiples of 1×,0.371 multiples of 1×,0.982 multiples of 1×,1.085 multiples of 1×,1.117 multiples of 1×
CCn1c(=O)c2cc(C(=O)Nc3cc(OC)c(OC)c(OC)c3)sc2c2ccccc21 [Compound 1G9],2290,1.217 multiples of 1×,0.582 multiples of 1×,0.485 multiples of 1×,0.989 multiples of 1×,0.713 multiples of 1×,1.053 multiples of 1×
CC(C)c1ccc(C2Sc3ccccc3NC3=C2C(=O)c2ccccc23)cc1 (stereo not drawn) [Compound 1B5],2310,0.797 multiples of 1×,0.843 multiples of 1×,0.491 multiples of 1×,0.831 multiples of 1×,0.775 multiples of 1×,0.697 multiples of 1×
CCCCN(C)C(=O)C1CCCN(c2ncnc3onc(C)c23)C1 (stereo not drawn) [Compound 2D5],2620,1.400 multiples of 1×,0.287 multiples of 1×,0.359 multiples of 1×,1.015 multiples of 1×,1.852 multiples of 1×,2.257 multiples of 1×
CC(C)c1ccc(NC(=O)Cn2c(=O)oc3cc(S(=O)(=O)N4CCCC4)ccc32)cc1 [Compound 2A9],2570,0.988 multiples of 1×,1.048 multiples of 1×,0.391 multiples of 1×,1.073 multiples of 1×,0.958 multiples of 1×,1.059 multiples of 1×
"CCOC(=O)O[C@]1(C(=O)OCCl)CC[C@H]2[C@@H]3CCC4=CC(=O)C=C[C@]4(C)[C@H]3[C@@H](O)C[C@@]21C [Loteprednol, reference compound]",3,1.579 multiples of 1×,0.805 multiples of 1×,0.265 multiples of 1×,1.167 multiples of 1×,0.979 multiples of 1×,0.927 multiples of 1×
COc1cc(NS(=O)(=O)c2ccc3c(c2)CC(C)N3C(=O)C2CCC2)cc(OC)c1OC (stereo not drawn) [Compound 2C3],338,1.133 multiples of 1×,1.043 multiples of 1×,0.430 multiples of 1×,0.946 multiples of 1×,1.179 multiples of 1×,1.127 multiples of 1×
"C[C@@H]1C[C@H]2[C@@H]3CCC4=CC(=O)C=C[C@]4(C)[C@@]3(Cl)[C@@H](O)C[C@]2(C)[C@@]1(O)C(=O)CCl [Mometasone, reference compound]",3,1.444 multiples of 1×,0.531 multiples of 1×,0.520 multiples of 1×,1.016 multiples of 1×,1.051 multiples of 1×,1.343 multiples of 1×
Cc1ccc(-c2nc3cc(C(C)C)ccc3o2)cc1NC(=O)c1cc([N+](=O)[O-])ccc1N1CCOCC1 [Compound 1C4],2430,0.883 multiples of 1×,0.813 multiples of 1×,0.290 multiples of 1×,1.142 multiples of 1×,0.928 multiples of 1×,1.197 multiples of 1×
CCOC(=O)Cn1c(=O)n(C2CCCCC2)c2nc(-c3cccc(F)c3)nc(C(N)=O)c21 [Compound 2E4],136,0.841 multiples of 1×,1.077 multiples of 1×,0.404 multiples of 1×,1.377 multiples of 1×,0.806 multiples of 1×,1.141 multiples of 1×
Cc1ccc(C)c(N2CCN(C(=O)C3CCN(c4nc(-c5ccc(C(C)C)cc5)no4)CC3)CC2)c1 [Compound 2E10],1340,1.244 multiples of 1×,1.082 multiples of 1×,0.611 multiples of 1×,1.133 multiples of 1×,1.253 multiples of 1×,1.158 multiples of 1×

# Second part, led by results:
IC50 (PU.1) [nM],Structure (SMILES),mRNA levels Apoe [1],mRNA levels IL1β [1],mRNA levels Lucif. [1],mRNA levels Spi1 [1],mRNA levels Trem2 [1],mRNA levels Tyrobp [1]
4800,Cn1nccc1C(=O)NCc1ccc2c(c1)CCN2C(=O)c1ccc(F)cc1 [Compound 2G2],0.957 multiples of 1×,0.887 multiples of 1×,0.294 multiples of 1×,0.958 multiples of 1×,1.071 multiples of 1×,0.963 multiples of 1×
258,COc1cccc2cc(C(=O)Nc3ccc(N4CCNCC4)cc3)c(=O)oc12 [Compound D10],1.251 multiples of 1×,1.347 multiples of 1×,0.622 multiples of 1×,1.072 multiples of 1×,1.342 multiples of 1×,1.593 multiples of 1×
1740,CCOC(=O)c1ccc(NS(=O)(=O)c2cc(Br)cc3c2N(C(C)=O)C(C)C3)cc1 (stereo not drawn) [Compound 1D3],0.928 multiples of 1×,1.144 multiples of 1×,0.347 multiples of 1×,0.965 multiples of 1×,1.031 multiples of 1×,1.102 multiples of 1×
3540,COc1cc(NS(=O)(=O)c2ccc3c(c2)CCN3S(C)(=O)=O)cc(OC)c1 [Compound 2F5],0.790 multiples of 1×,0.767 multiples of 1×,0.590 multiples of 1×,0.783 multiples of 1×,0.901 multiples of 1×,0.985 multiples of 1×
8050,Cc1ccc(C(=O)Nc2nnc(SCc3cc(=O)c4c(C)ccc(C)c4[nH]3)s2)cc1 [Compound 2E7],1.076 multiples of 1×,0.887 multiples of 1×,0.623 multiples of 1×,0.926 multiples of 1×,0.854 multiples of 1×,0.927 multiples of 1×
1330,Cc1c(Cl)ccc2sc(N3CCN(C(=O)CCS(=O)(=O)c4ccc(F)cc4)CC3)nc12 [Compound 2F9],0.928 multiples of 1×,0.821 multiples of 1×,0.655 multiples of 1×,1.020 multiples of 1×,0.890 multiples of 1×,0.904 multiples of 1×
